{
  "source": "patent US9693564B2",
  "about": "“Water based antimicrobial composition using benzalkonium chloride and cocamidopropyl PG-dimonium chloride phosphate” (SAFEHANDS SOLUTIONS, LLC, priority 2011, dated 2017)",
  "system": "Staphylococcus aureus",
  "assay": "Antimicrobial effectiveness testing (log reduction of bacteria, 15 seconds exposure)",
  "assay_type": "cell-based",
  "settings": "15 seconds at 25±1° C., undiluted",
  "protocol": "The tests were performed on broth cultures that were passed through at least three consecutive daily transfers but no more than ten daily transfers. The broth cultures were diluted with the appropriate broth to obtain an inoculum count of 6×10^8 to 1×10^9 CFU/ml (Mac Farland Standard ˜2.0 to 3.0). The test article was used undiluted. The exposure time and temperature was 15 seconds at 25±1° C., respectively. All tests involving the test article were conducted in triplicate. A 4.95 gram sample of the test article was placed in a sterile, screw-top 50 ml polyethylene tube at 25±1° C. The test article was inoculated with 0.05 ml of the test organism at the appropriate concentration. The tube contents were neutralized by the addition of 45 ml of Neutralizer (Tryptic or Trypticase Soy Broth (TSB) with 10% TWEEN 80, 3% Lecithin, 0.5% Sodium thiosulfate and 0.1% Histidine, pH 7.2±0.1) followed by vortexing. One ml of the neutralized sample (10^−1 dilution) was serially diluted in 10-fold steps to 10^−6 for the test article and to 10^−7 for the numbers control using tubes containing 9 ml of AOAC Neutralizer blanks. An inoculum count was determined by 10-fold serial dilutions to 10^−8 using tubes containing 9 ml of AOAC phosphate buffered dilution water. The dilutions were plated in duplicate on Letheen Agar, and plates were incubated in an inverted position for the appropriate time and at a temperature appropriate for the test organism. The test organism was a single species of Staphylococcus aureus.\nAntimicrobial effectiveness was determined by calculating the log reduction of bacteria in the test sample. For comparison, the log reduction for a 0.02% CHX-gluconate solution is 0.5, the log reduction for a 0.13% BAC solution is 0.5, and the log reduction for a 1% cocamidopropyl PG-dimonium chloride phosphate solution is 2. When added together, the total log reduction for the three ingredients tested individually is 3.",
  "data": [
    {"molecule": "CCCCCCCCCCCC(=O)NCCC[N+](C)(C)CC(O)COP(=O)([O-])OCC(O)C[N+](C)(C)CCCNC(=O)CCCCCCCCCCC.[Cl-].[Cl-].[Na+]", "note": "(stereo not drawn) [cocamidopropyl PG-dimonium chloride phosphate]", "values": [
      {"measurement": "log reduction", "setting": "1% solution", "value": 2}
    ]},
    {"molecule": "benzalkonium chloride [BAC]", "values": [
      {"measurement": "log reduction", "setting": "0.13% solution", "value": 0.5}
    ]},
    {"molecule": "N=C(NCCCCCCNC(=N)NC(=N)Nc1ccc(Cl)cc1)NC(=N)Nc1ccc(Cl)cc1.O=C(O)[C@H](O)[C@@H](O)[C@H](O)[C@H](O)CO.O=C(O)[C@H](O)[C@@H](O)[C@H](O)[C@H](O)CO", "note": "[CHX-gluconate, chlorhexidine gluconate]", "values": [
      {"measurement": "log reduction", "setting": "0.02% solution", "value": 0.5}
    ]}
  ]
}
